Assay results as given in patent US20250099448A1, “HETEROCYCLIC COMPOUNDS” (Hoffmann-La Roche Inc., priority 2022, published 2025).

Molecular target: T1, MAGL protein (Homo sapiens, UniProt Q99685)
T1 sequence (Q99685 1-303): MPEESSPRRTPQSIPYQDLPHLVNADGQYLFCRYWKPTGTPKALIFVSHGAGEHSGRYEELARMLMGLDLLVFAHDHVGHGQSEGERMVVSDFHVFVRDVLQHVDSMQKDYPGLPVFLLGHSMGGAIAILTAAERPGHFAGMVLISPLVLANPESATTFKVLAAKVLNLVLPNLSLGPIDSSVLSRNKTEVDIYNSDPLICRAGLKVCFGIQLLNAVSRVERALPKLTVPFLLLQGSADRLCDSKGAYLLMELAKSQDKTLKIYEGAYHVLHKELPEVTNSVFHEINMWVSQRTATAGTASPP
Test: 2-AG assay: MAGL inhibitory activity by hydrolysis of 2-arachidonoylglycerol to arachidonic acid, followed by mass spectrometry
Type: biochemical
Conditions: 8 μM 2-arachidonoylglycerol, 15 min preincubation, 30 min reaction at RT, RapidFire MS readout
Procedure, shortened: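 MAGL was preincubated 15 min at RT with compound (12.5 to […], 3-fold steps) in 50 mM TRIS, 1 mM EDTA, 0.01% Tween-20, 2.5% DMSO. The reaction ran 30 min at RT with 8 μM 2-AG. Arachidonic acid was quantified by RapidFire SPE-MS/MS against a d8-arachidonic acid internal standard.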

SMILES	IC50
O=C(N1CC2(CC(c3nc(C4CC4)n[nH]3)C2)C1)N1CC2(CN(Cc3cc(C(F)(F)F)sn3)C2)C1 [compound 675]	8.76 nM
O=C(N1CC2(CC(CNC3(C(F)(F)F)COC3)C2)C1)N1CC2(CC(c3nnc(C4CC4)[nH]3)C2)C1 [compound 354]	5.39 nM
CS(=O)(=O)c1ccc(CC2CC3(C2)CN(C(=O)N2CC4(CC(c5nnc(C6CCC6)[nH]5)C4)C2)C3)cc1 [compound 14]	14.8 nM
O=C(N1CC2(CC(Cc3nnc(C4(C(F)(F)F)CC4)o3)C2)C1)N1CC2(CC(c3nnc(C4CC4)[nH]3)C2)C1 [compound 862]	1.57 nM
O=C(N1CC(C23CC(c4nnc(C5(C(F)(F)F)CC5)o4)(C2)C3)C1)N1CC2(CC(c3nc(C4CC4)n[nH]3)C2)C1 [compound 422]	14.3 nM
O=C(N1CCN(Cc2ccc(C(F)(F)F)cn2)CC1)N1CC2(CC(c3nnc(C4CC4)[nH]3)C2)C1 [Example 876]	806 nM
O=C(N1CC2(CC(c3nc(C4CC4)n[nH]3)C2)C1)N1CC2(CN(Cc3ccn(CCC(F)(F)F)n3)C2)C1 [compound 972]	81.1 nM
N#Cc1cc(C(F)(F)F)ccc1CC1CC2(C1)CN(C(=O)N1CC3(CC(c4nnc(C5(O)CC5)[nH]4)C3)C1)C2 [compound 477]	0.08 nM
N#Cc1cc(OC2CC3(C2)CN(C(=O)N2CC4(CC(c5nc(C6CC6)n[nH]5)C4)C2)C3)ccc1C(F)(F)F [compound 499]	3.46 nM
O=C(N1CC2(CC(Cc3ccc(C(F)(F)F)cn3)C2)C1)N1CC2(CC(c3nc(C4COC4)n[nH]3)C2)C1 [compound 824]	10.3 nM
O=C(N1CCC(c2nn(C[C@H](O)C(F)(F)F)c3ccc(Cl)cc23)CC1)N1CC2(CC(c3nnc(C4CC4)[nH]3)C2)C1 [Example 864]	14.3 nM
O=C(N1CC2(CC(Cc3ccc4nnc(C(F)(F)F)n4c3)C2)C1)N1CC2(CC(c3nc(C4CC4)n[nH]3)C2)C1 [compound 995]	2.74 nM
N#Cc1cc(CC2CC3(C2)CN(C(=O)N2CC4(CC(c5nc(C6CC6)n[nH]5)C4)C2)C3)cc(C(F)(F)F)c1 [compound 867]	0.1 nM
O=C(N1CC(C23CC(c4nnc(CC(F)(F)F)o4)(C2)C3)C1)N1CC2(CC(c3nnc(C4CC4)[nH]3)C2)C1 [compound 344]	7.59 nM
O=C(N1CC(c2ccc(NC3(C(F)(F)F)CC3)nc2)C1)N1CC2(CC(c3nnc(C4(O)CC4)[nH]3)C2)C1 [compound 272]	3.67 nM
CC(C)(C)Cc1nnc(C23CC(C4CN(C(=O)N5CC6(CC(c7nc(C8(O)CC8)n[nH]7)C6)C5)C4)(C2)C3)s1 [compound 466]	22.9 nM
Cn1ncc(C(F)(F)F)c1CN1CC2(C1)CN(C(=O)N1CC3(CC(c4nc(C5CC(F)(F)C5)n[nH]4)C3)C1)C2 [compound 658]	412 nM
O=C(N1CC2(CC(Cc3cc(F)cc(C(F)(F)F)c3)C2)C1)N1CC2(CC(c3nnc(C4(O)CC4)[nH]3)C2)C1 [compound 122]	< 0.05 nM
Cc1nc(C)n(-c2ccc(C3CN(C(=O)N4CC5(CC(c6nnc(C7CC7)[nH]6)C5)C4)C3)cc2)n1 [compound 841]	10.6 nM

SMILES	IC50
O=C(N1CC2(CC(Cc3cc(C(F)(F)F)ccn3)C2)C1)N1CC2(CC(c3nnc(C4CC4)[nH]3)C2)C1 [compound 118]	0.19 nM
O=C(N1CC2(CC(c3nc(C4CC4)n[nH]3)C2)C1)N1CC2(CN(Cc3cc[nH]n3)C2)C1 [compound 799]	1330 nM
CC1(NCC2CC3(C2)CN(C(=O)N2CC4(CC(c5nnc(C6CC6)[nH]5)C4)C2)C3)CS(=O)(=O)C1 [compound 357]	25.6 nM
O=C(N1CC2(CC(Cc3ccc(OC(F)(F)F)nc3)C2)C1)N1CC2(CC(c3nc(C4CC(F)(F)C4)n[nH]3)C2)C1 [compound 566]	14.7 nM
O=C(N1CC2(CC(CNC3(C(F)(F)F)CC3)C2)C1)N1CC2(CC(c3ncn[nH]3)C2)C1 [compound 983]	2180 nM
O=C(N1CC(C23CC(S(=O)(=O)c4ccc(C(F)(F)F)cc4)(C2)C3)C1)N1CC2(CC(c3nc(C4CC4)n[nH]3)C2)C1 [compound 722]	57.1 nM
CS(=O)(=O)c1ccc(Cl)cc1OC1CCC2(CC1)CN(C(=O)N1CC3(CC(c4nnc(C5CC5)[nH]4)C3)C1)C2 [compound 350]	3.43 nM
O=C(N1CC(Oc2ccc(C3CC3)cc2)C1)N1CC2(CC(c3nnc(C4(O)CC4)[nH]3)C2)C1 [compound 312]	2.97 nM
Cc1cc(C)n(-c2ccc(C3CN(C(=O)N4CC5(CC(c6nnc(C7CC7)[nH]6)C5)C4)C3)cc2)n1 [compound 294]	0.56 nM
O=C(N1CC(C23CC(Nc4cnc(C(F)(F)F)cn4)(C2)C3)C1)N1CC2(CC(c3nc(C4CC4)n[nH]3)C2)C1 [compound 699]	0.34 nM
O=C(N1CC2(CC(c3nc(C4CC4)n[nH]3)C2)C1)N1CC2(CC[C@H](Cc3cccc(S(=O)(=O)C(F)(F)F)c3)C2)C1 [compound 594]	0.02 nM
N#Cc1cc(C2CC2)ccc1OC1CN(C(=O)N2CC3(CC(c4nnc(C5(O)CC5)[nH]4)C3)C2)C1 [compound 317]	7.18 nM
O=C(N1CC(c2ccc(Oc3ccccc3Cl)nc2)C1)N1CC2(CC(c3nnc(C4(O)CC4)[nH]3)C2)C1 [compound 374]	1.61 nM
N=S(=O)(c1ccc(CC2CC3(C2)CN(C(=O)N2CC4(CC(c5nc(C6CC6)n[nH]5)C4)C2)C3)c(F)c1)C(F)(F)F (stereo not drawn) [compound 849]	0.07 nM
O=C(N1CC2(CC(Cc3ccc(C(F)(F)F)cc3F)C2)C1)N1CC2(CC(c3nnc(C4CC4)[nH]3)C2)C1 [compound 37]	0.01 nM
O=C(N1CC(Oc2ccc(C3CC3)cc2F)C1)N1CC2(CC(c3nnc(C4(O)CC4)[nH]3)C2)C1 [compound 313]	4.59 nM
O=C(N1CC(c2ccc(N3CCC(O)(C(F)(F)F)C3)nc2)C1)N1CC2(CC(c3nnc(C4CC4)[nH]3)C2)C1 (single isomer, unassigned) [compound 270]	4.93 nM
O=C(N1CC2(CC(Cn3ccc(C4CC4)n3)C2)C1)N1CC2(CC(c3nc(C4CC4)n[nH]3)C2)C1 [compound 822]	0.88 nM
CC(C)(C)c1coc(CN2CC3(C2)CN(C(=O)N2CC4(CC(c5nc(C6CC6)n[nH]5)C4)C2)C3)n1 [compound 483]	2.13 nM

SMILES	IC50
O=C(N1CC2(CC(Cc3ccc(F)cc3F)C2)C1)N1CC2(CC(c3nnc(C4CC4)[nH]3)C2)C1 [compound 35]	0.07 nM
N#Cc1cc(F)ccc1C12CC(C3CN(C(=O)N4CC5(CC(c6nc(C7CC7)n[nH]6)C5)C4)C3)(C1)C2 [compound 463]	0.56 nM
O=C(N1CC(OCc2ccc(C(F)(F)F)cc2F)C1)N1CC2(CC(c3nnc(C(O)C(F)(F)F)[nH]3)C2)C1 (stereo not drawn) [compound 336]	55.8 nM
O=C(N1CC2(CC(Cc3ccc(C(F)(F)F)nn3)C2)C1)N1CC2(CC(c3nnc(C4CC4)[nH]3)C2)C1 [compound 22]	0.8 nM
O=C(N1CCC(CNS(=O)(=O)c2ccc(Cl)cc2)CC1)N1CC2(CC(c3nnc(C4CC4)[nH]3)C2)C1 [compound 252]	68.3 nM
O=C(N1CC2(CC(c3nnc(C4(O)CC4)[nH]3)C2)C1)N1CC2(C1)CN(S(=O)(=O)c1ccc(OC(F)(F)F)cc1)C2 [compound 92]	44 nM
COc1cc(C(F)(F)F)ccc1CNC1CN(C(=O)N2CC3(CC(c4nnc(C5CC5)[nH]4)C3)C2)C1 [compound 197]	15.6 nM
O=C(N1CC2(CC(Cc3ccc(C(F)(F)F)cn3)C2)C1)N1CC2(CC(c3nnc(C4CC4)[nH]3)C2)C1 [compound 110]	0.21 nM
O=C(N1CC2(CC(NS(=O)(=O)c3ccccc3C(F)(F)F)C2)C1)N1CC2(CC(c3nnc(C4CC4)[nH]3)C2)C1 [compound 224]	0.7 nM
O=C(N1CC(NS(=O)(=O)c2cccc(OC(F)(F)F)c2)C1)N1CC2(CC(c3nnc(C4CC4)[nH]3)C2)C1 [compound 205]	155 nM
N#Cc1cc(CC2CC3(C2)CN(C(=O)N2CC4(CC(c5nc(C6(F)CC6)n[nH]5)C4)C2)C3)ccc1C(F)(F)F [compound 585]	0.06 nM
O=C(N1CC2(CC(Cc3ccc(C(F)(F)F)cc3F)C2)C1)N1CC2(CC(c3nc(C4(F)CC4)n[nH]3)C2)C1 [compound 522]	0.05 nM
Cc1cc(C2CC2)nn1CC1CC2(C1)CN(C(=O)N1CC3(CC(c4nc(C5CC5)n[nH]4)C3)C1)C2 [compound 847]	0.53 nM
O=C(N1CC2(CC(c3nnc(C4CCC4)[nH]3)C2)C1)N1CC2(CN(Cc3ccc(F)cc3F)C2)C1 [Example 158, [6-(5-cyclobutyl-4H-1,2,4-triazol-3 yl)-2-azaspiro[3.3]heptan-2-yl]-[6-[(2,4-difluorophenyl)methyl]-2,6-diazaspiro[3.3]heptan-2-yl]methanone]	150 nM
O=C(N1CC2(CC(Cc3cnn(CC(F)(F)F)c3)C2)C1)N1CC2(CC(c3nc(C4CC4)n[nH]3)C2)C1 [compound 764]	1.08 nM
O=C(N1CC2(CCN(c3ccc(Cl)cc3F)CC2)C1)N1CC2(CC(c3nnc(C4CC4)[nH]3)C2)C1 [compound 283]	0.88 nM
O=C(N1CC(c2ccc(NC3(C(F)(F)F)CC3)nc2)C1)N1CC2(CC(c3nnc(C4CC4)[nH]3)C2)C1 [Example 1, [6-(5-cyclopropyl-4H-1,2,4-triazol-3-yl)-2-azaspiro[3.3]heptan-2-yl]-[3-[6-[[1-(trifluoromethyl)cyclopropyl]amino]-3-pyridyl]azetidin-1-yl]methanone]	0.94 nM
CS(=O)(=O)c1ccc(CC2CC3(C2)CN(C(=O)N2CC4(CC(c5nnc(C6CC6)[nH]5)C4)C2)C3)cc1 [compound 12]	0.81 nM
COC(=O)c1ccccc1-c1ccc(C2CN(C(=O)N3CC4(CC(c5nnc(C6CC6)[nH]5)C4)C3)C2)cc1 [compound 339]	0.16 nM
